# Experimental data: patent publication US20170014472A1, “ATTENUATION OF INTRAPULMONARY INFLAMMATION” (APEPTICO FORSCHUNG UND E[…], priority 2014, published 2017)
# Several values for one entry are separate records, joined by “and”; a condition that tells them apart may be missing. Equal values may be shown once. Read-outs that look alike come from different tables or passages of the source.
# Key:
# Assay type in all cases: in vivo, pig
# [1] = system: porcine model of lipopolysaccharide (LPS)-induced sepsis; conditions: for CO (cardiac output) / CVP (central venous pressure) / EVLW (extravascular lung water content) / MAP (mean arterial pressure) / MPAP (mean pulmonary arterial pressure) / NA (noradrenaline dosage required for hemodynamic stability) / PaCO2 (arterial partial pressure of carbon dioxide) / Pendinsp (end-inspiratory pressure) / RR (respiratory rate): median
# Experimental: Following animal care committee approval (Landesuntersuchungsamt Rheinland-Pfalz, Koblenz, Germany; approval number 23 177-07/G12-1-058) 18 juvenile pigs (weight 25-27 kg) were examined in a randomized, investigator-blinded setting.
# After sedation with intramuscular injection of ketamine (8 mg kg^−1) and midazolam (0.2 mg kg^−1) and preparation of vascular access, anesthesia was induced and maintained by intravenous propofol and fentanyl administration (8-12 mg kg^−1 h^−1/0.1-0.2 mg h^−1). A single dose of atracurium (0.5 mg kg^−1) was applied to facilitate orotracheal intubation. Ventilation (Respirator: AVEA®, CareFusion, USA) was started in pressure-controlled mode with a tidal volume of (Vt) of 8 mL kg^−1, positive end-expiratory pressure (PEEP) of 5 cmH2O, FiO2 of 0.3-0.4 and a variable respiratory rate to maintain normocapnia. A balanced saline solution (Sterofundin iso, B. Braun, Germany) was continuously infused at a rate of 10 mL kg^−1h^−1. Vascular catheters were placed ultrasound-guided in Seldinger's technique and under sterile conditions: an arterial line, a pulse contour cardiac output catheter (PiCCO, Pulsion Medical Systems, Germany) and central venous line were inserted via femoral vein access. A 7.5-French introducer for a pulmonary artery catheter was placed via the right internal jugular vein. Ventilatory and extended hemodynamic parameters were recorded continuously (Datex S/5, GE Healthcare, Germany). Body temperature was measured by a rectal probe and normothermia was maintained by body surface warming
# (§1) Following instrumentation baseline parameters were assessed at healthy state. FIG. 1 summarizes the experimental protocol: systemic inflammation was induced by continuous LPS infusion (Escherichia coli serotype O111:B4, Sigma-Aldrich, Switzerland) for one hour at 100 μg kg^−1 h^−1, followed by 10 μg kg^−1h^−1 for the entire experiment. Initial high-dose infusion was combined with a non-protective ventilation setting (Vt 25 mL kg^−1, zero PEEP, FiO2 1.0) to add a VILI component. Afterwards the ventilation mode was switched to a more lung protective setting: Vt of 8 mL kg^−1, PEEP 5 cm H2O, FiO2 of 0.4-0.5, and a variable respiratory rate to maintain a pH>7.2. The animals were monitored over six hours after sepsis induction. During the induction phase a non-participant randomized the animals into two groups and prepared the peptide solution as previously described (Hartmann E K et al, Acta anaesthesiologica Scandinavica 2013, 57(3):334-341) for blinded endotracheal inhalation.
# (§2) Group (1) animals, to which 1 mg kg^−1 of a compound of formula I of the amino acid sequence SEQ ID NO:5 was administered at zero and three hours;
# To maintain hemodynamic stability (mean arterial pressure >60 mmHg) additional fluid boli were administered (150 ml of balanced saline or hydroxyethyl starch once every hour). Persisting instability was treated by continuous central venous noradrenaline infusion. At the end of the experiments the animals were killed in deep general anesthesia by intravenous injection of propofol (200 mg) and potassium chloride (40 mval).
# (§3) Data are expressed as median and interquartile range (IQR) respectively box-plots. Intergroup comparisons were tested with the Mann-Whitney-U-Test. If multiple testing was performed, P values were adjusted by the Bonferroni correction. Intragroup time courses of repetitively measured parameters were analyzed by Friedman ANOVA on ranks and post-hoc Student-Newman-Keuls-Test. P values below 0.05 were regarded as significant. Physiological data (ventilator and hemodynamic data) as set out in Table 1 were analyzed in explorative manner only. The statistical software SigmaPlot 11.0 (Systat Inc., USA) was used.
# [2] = system: intrapulmonary mRNA of IL-1β, IL-6, TNF-α, COX-2, iNOS, amphiregulin, tenascin-c; experiment: Intrapulmonary mRNA quantification (real-time PCR, normalized to PPIA) in lung tissue of LPS-septic pigs
# Experimental: as §1, §2
# To determine intrapulmonary inflammation mRNA levels of pro-inflammatory cytokines interleukin-1β (IL-1β), interleukin-6 (IL-6), TNF-α, and enzymes prostaglandin G/H synthase-2 (COX-2) and inducible nitric oxide synthase (iNOS) were quantified. Amphiregulin and tenascin-c expression levels were examined as surrogates of mechanical stress and remodeling. Four representative samples from the left lung (upper/lower lobe, each dependent/non-dependent) were collected, snap frozen in liquid nitrogen and stored at −80° C. RNA extraction and quantification procedure by real-time polymerase chain reaction (Lightcycler 480 PCR System, Roche Applied Science, Germany) was conducted as previously described in detail.[17-19] mRNA expression data were normalized against peptidylprolyl isomerase A (PPIA) as control gene.
# as §3
# [3] = system: plasma IL-6 and TNF-α; experiment: Plasma levels of IL-6 and TNF-α by ELISA in LPS-septic pigs; conditions: vs CTRL; repetitive inhalation; compared with the effect on pulmonary expression
# Experimental: as §1, with “During the induction phase a non-participant randomized the animals into two groups and prepared the peptide solution as previously described (Hartmann E K et al, Acta anaesthesiologica Scandinavica 2013, 57(3):334-341) for blinded endotracheal inhalation.” left out
# Blood gas values were obtained using a Rapidlab 248 device (Bayer Healthcare, Germany) Hematological parameters were sampled during baseline, sepsis induction and after three and six hours. Lactate plasma levels, leucocyte and platelet counts were analyzed by the Institute of Laboratory Medicine, Medical Center of the Johannes Gutenberg-University. The plasma levels of IL-6 and TNF-α were determined by quantifying enzyme linked immunosorbent assays according to the manufacturer's instructions (Porcine IL-6 Quantikine ELISA, Porcine TNF-α Quantikine ELISA, R&D Systems, Germany).
# [4] = system: LPS-induced lung injury; experiment: Post-mortem macroscopic and histopathological lung injury scoring and lung wet to dry ratio in LPS-septic pigs; conditions: for hemorrhage, histopathological score / alveolar edema, histopathological score / epithelial destruction, histopathological score / inflammatory infiltration, histopathological score / interstitial edema, histopathological score / microatelectasis, histopathological score / overdistension, histopathological score: post-mortem at 6 h, median (IQR); for hemorrhage, histopathological score: 0 to 5 points, CTRL higher, P<0.05 vs. Group (1); for alveolar edema, histopathological score / epithelial destruction, histopathological score / inflammatory infiltration, histopathological score / interstitial edema, histopathological score / microatelectasis, histopathological score / overdistension, histopathological score: severity 0 to 5 points
# Experimental: as §1, §2
# The lungs were removed en-bloc after thoracotomy. A macroscopic lung injury score was assessed as previously described in detail (Lim C M et al, Lung 2003, 181(1):23-34). Four ventral and dorsal segments (each upper/lower right, upper/lower left) of the lung surface were examined for hemorrhage and congestion (2 points>50%, 1 point for<50%, 0 points for no or minimal changes). The right lung was fixed in 10% buffered formalin. Representative tissue samples were paraffin embedded and cut for hematoxylin and eosin staining A blinded investigator under supervision of a senior pathologist performed the histopathological assessment. In different lung regions (non-dependent periphery and bronchial, dependent periphery and bronchial) morphological changes were rated for seven criteria (alveolar edema, interstitial edema, hemorrhage, inflammatory infiltration, epithelial damage, microatelectasis and overdistension). The severity of each parameter ranged from 0 (no occurrence) to 5 points (complete field). For every lung region we used the mean value of four non-overlapping microscopy fields. The sum of the regional scores in all lung regions adds to a maximum injury score of 140 points (7 parameters×5 maximum points per parameter from 4 lung regions). Additionally the regional distribution of each parameter was assessed in the dependent versus non-dependent lung regions. Similar scoring procedures were described previously (Spieth P M et al, Intensive Care Med 2007, 33(2):308-314; Wang H M et al, Eur Surg Res 2010, 45(3-4):121-133).The left lung was weighted immediately after removal and dried afterwards at 60° C. for 72 hours to determine the dry weight and wet to dry ratio (W/D).
# as §3
# [5] = 3 h, 1 mg kg^−1 inhaled at zero and three hours
# [6] = 6 h, 1 mg kg^−1 inhaled at zero and three hours
# [7] = Baseline, before LPS and inhalation
# [8] = Sepsis/VILI induction, before first inhalation
# [9] = vs CTRL, lung tissue at 6 h, 1 mg kg^−1 inhaled at zero and three hours
substance,measurement,setting,value
"Cyclo(4-aminobutanoic acid-GQRETPEGAEAKPWYD) (XGQRETPEGAEAKPWYD; cyclized via N-terminal 4-aminobutanoic acid to Asp side chain; cyclized compound for use in inflammation) [SEQ ID NO:5, amide bond between amino group of N-terminal 4-aminobutanoic acid and β-carboxyl side chain of C-terminal aspartic acid]",CO (cardiac output),[1]; [5],3.2 L/min
same,CVP (central venous pressure),[1]; [5],11 mmHg
same,EVLW (extravascular lung water content),[1]; [5],12 mL/kg
same,MAP (mean arterial pressure),[1]; [5],61 mmHg
same,MPAP (mean pulmonary arterial pressure),[1]; [5],33 mmHg
same,NA (noradrenaline dosage required for hemodynamic stability),[1]; [5],0.2 µg/kg/min
same,PaCO2 (arterial partial pressure of carbon dioxide),[1]; [5],43 mmHg
same,Pendinsp (end-inspiratory pressure),[1]; [5],22 cmH2O
same,RR (respiratory rate),[1]; [5],34 min⁻¹
same,CO (cardiac output),[1]; [6],3.7 L/min
same,CVP (central venous pressure),[1]; [6],13 mmHg
same,EVLW (extravascular lung water content),[1]; [6],13 mL/kg
same,MAP (mean arterial pressure),[1]; [6],66 mmHg
same,MPAP (mean pulmonary arterial pressure),[1]; [6],30 mmHg
same,NA (noradrenaline dosage required for hemodynamic stability),[1]; [6],0.8 µg/kg/min
same,PaCO2 (arterial partial pressure of carbon dioxide),[1]; [6],43 mmHg
same,Pendinsp (end-inspiratory pressure),[1]; [6],19 cmH2O
same,RR (respiratory rate),[1]; [6],32 min⁻¹
same,CO (cardiac output),[1]; [7],4.5 L/min
same,CVP (central venous pressure),[1]; [7],11 mmHg
same,EVLW (extravascular lung water content),[1]; [7],10 mL/kg
same,MAP (mean arterial pressure),[1]; [7],90 mmHg
same,MPAP (mean pulmonary arterial pressure),[1]; [7],22 mmHg
same,NA (noradrenaline dosage required for hemodynamic stability),[1]; [7],0 µg/kg/min
same,PaCO2 (arterial partial pressure of carbon dioxide),[1]; [7],45 mmHg
same,RR (respiratory rate),[1]; [7],29 min⁻¹
same,Pendinsp (end-inspiratory pressure),"[1]; Baseline, healthy state before LPS and inhalation",14 cmH2O
same,CO (cardiac output),[1]; [8],4.5 L/min
same,CVP (central venous pressure),[1]; [8],10 mmHg
same,EVLW (extravascular lung water content),[1]; [8],11 mL/kg
same,MAP (mean arterial pressure),[1]; [8],100 mmHg
same,MPAP (mean pulmonary arterial pressure),[1]; [8],23 mmHg
same,NA (noradrenaline dosage required for hemodynamic stability),[1]; [8],0 µg/kg/min
same,PaCO2 (arterial partial pressure of carbon dioxide),[1]; [8],35 mmHg
same,Pendinsp (end-inspiratory pressure),[1]; [8],22 cmH2O
same,RR (respiratory rate),[1]; [8],9 min⁻¹
same,Raw (airway resistance),"[1]; pig, in vivo",10 cmH2O L^−1s^−1 and 12 cmH2O L^−1s^−1 and 11 cmH2O L^−1s^−1
same,intrapulmonary inflammatory response,"[2]; at 6 hours post insult, peptide inhalation, LPS-induced lung injury in pigs",significantly reduced
same,intrapulmonary overall mRNA expression of COX-2,"[2]; vs CTRL, p=0.003, lung tissue at 6 h, 1 mg kg^−1 inhaled at zero and three hours",significantly lower
same,intrapulmonary tenascin-c expression,"[2]; vs CTRL, p=0.015, lung tissue at 6 h, 1 mg kg^−1 inhaled at zero and three hours",decreased
same,intrapulmonary overall mRNA expression of TNF-α,"[2]; vs CTRL, p=0.041, lung tissue at 6 h, 1 mg kg^−1 inhaled at zero and three hours",significantly lower
same,intrapulmonary overall mRNA expression of IL-6,"[2]; vs CTRL, p=0.043, lung tissue at 6 h, 1 mg kg^−1 inhaled at zero and three hours",significantly lower
same,intrapulmonary mRNA expression of IL-1β,[2]; [9],less differences
same,intrapulmonary mRNA expression of iNOS,[2]; [9],less differences
same,plasma level of IL-6,[3],less affected
same,plasma level of TNF-α,[3],less affected
same,"hemorrhage, histopathological score",[4]; dependent lung regions,0.1 (0.8)
same,"alveolar edema, histopathological score",[4]; dependent lung regions,0 (0.1)
same,"epithelial destruction, histopathological score",[4]; dependent lung regions,0 (0)
same,"inflammatory infiltration, histopathological score",[4]; dependent lung regions,3.4 (1.6)
same,"interstitial edema, histopathological score",[4]; dependent lung regions,1.3 (0;8)
same,"microatelectasis, histopathological score",[4]; dependent lung regions,3.8 (2.4)
same,"overdistension, histopathological score",[4]; dependent lung regions,3.5 (1.7)
same,pulmonary wet to dry ratio (W/D),"[4]; left lung, vs CTRL Group (2), trend",higher
same,"hemorrhage, histopathological score",[4]; non-dependent lung regions,0 (0)
same,"alveolar edema, histopathological score",[4]; non-dependent lung regions,0 (0)
same,"epithelial destruction, histopathological score",[4]; non-dependent lung regions,0 (0)
same,"inflammatory infiltration, histopathological score",[4]; non-dependent lung regions,3.8 (1.4)
same,"interstitial edema, histopathological score",[4]; non-dependent lung regions,0.9 (1.1)
same,"microatelectasis, histopathological score",[4]; non-dependent lung regions,3.8 (1.4)
same,"overdistension, histopathological score",[4]; non-dependent lung regions,4.1 (0.9)
same,post-mortem macroscopic and histologic lung injury,"[4]; vs CTRL Group (2), sustained lung injury in both groups",trend towards a less pronounced damage
